Assay results from ChEMBL document CHEMBL3526079, “Glutaredoxin is involved in the formation of the pharmacologically active metabolite of clopidogrel from its GSH conjugate” (Drug Metab Dispos, 2012).

Legend:
Liver cytosol [1] = experiment: Drug metabolism in human liver cytosol assessed as (E)-2-(1-((S)-1-(2-chlorophenyl)-2-methoxy-2-oxoethyl)-4-mercaptopiperidin-3-ylidene)acetic acid formation at 1 uM for 2.5 mins by LC-MS/MS analysis in presence of 5 mM GSH and 19 to 300 ug/ml anti-human glutaredoxin antibody; type: ADME
[2] = Activity of human recombinant glutaredoxin assessed as enzyme-mediated (E)-2-(1-((S)-1-(2-chlorophenyl)-2-methoxy-2-oxoethyl)-4-mercaptopiperidin-3-ylidene)acetic acid formation at 1 uM for 2.5 mins by LC-MS/MS analysis in presence of 5 mM GSH and 19 to 300 ug/ml anti-human glutaredoxin antibody; type: ADME
[3] = Activity of human recombinant glutaredoxin assessed as enzyme-mediated (E)-2-(1-((S)-1-(2-chlorophenyl)-2-methoxy-2-oxoethyl)-4-mercaptopiperidin-3-ylidene)acetic acid formation; type: ADME
[4] = Activity of human recombinant glutaredoxin assessed as enzyme-mediated (E)-2-(1-((S)-1-(2-chlorophenyl)-2-methoxy-2-oxoethyl)-4-mercaptopiperidin-3-ylidene)acetic acid formation per ug of protein; type: ADME
[5] = Activity of human recombinant glutaredoxin assessed as intrinsic clearance of enzyme-mediated (E)-2-(1-((S)-1-(2-chlorophenyl)-2-methoxy-2-oxoethyl)-4-mercaptopiperidin-3-ylidene)acetic acid formation per ug of protein; type: ADME
[6] = Activity of human recombinant glutaredoxin assessed as intrinsic clearance of enzyme-mediated (E)-2-(1-((S)-1-(2-chlorophenyl)-2-methoxy-2-oxoethyl)-4-mercaptopiperidin-3-ylidene)acetic acid formation per pmol of protein; type: ADME
Liver microsome [7] = experiment: Drug level in human liver microsome assessed as compound formation treated with R-115991 at 5 uM by LC-MS/MS analysis in presence of 5 mM GSH; type: ADME; settings: microsomes
Liver microsome [8] = experiment: Drug metabolism in human liver microsome assessed as (E)-2-(1-((S)-1-(2-chlorophenyl)-2-methoxy-2-oxoethyl)-4-mercaptopiperidin-3-ylidene)acetic acid formation at 1 uM for 2.5 mins by LC-MS/MS analysis in presence of 5 mM GSH and 19 to 300 ug/ml anti-human glutaredoxin antibody; type: ADME; settings: microsomes
Liver microsome [9] = experiment: Drug level in human liver microsome assessed as compound formation rate measured per mg of protein treated with 1 uM R-361015-SG for 2.5 mins by LC-MS/MS analysis in presence of 5 mM GSH; type: ADME; settings: microsomes
Liver cytosol [10] = experiment: Drug level in human liver cytosol assessed as compound formation rate measured per mg of protein treated with 1 uM R-361015-SG for 2.5 mins by LC-MS/MS analysis in presence of 5 mM GSH; type: ADME, tissue-based
[11] = Activity of human recombinant glutaredoxin assessed as enzyme-mediated compound formation rate measured per ug of enzyme at 1 uM for 2.5 mins by LC-MS/MS analysis in presence of 5 mM GSH; type: ADME
Liver microsome [12] = experiment: (§1) Drug metabolism in human liver microsome assessed as (2S)-2-amino-5-((2R)-1-(carboxymethylamino)-3-(((E)-3-(carboxymethylene)-1-((S)-1-(2-chlorophenyl)-2-methoxy-2-oxoethyl)piperidin-4-yl)disulfanyl)-1-oxopropan-2-ylamino)-5-oxopentanoic acid formation at 5 uM by LC-MS/MS analysis in presence of 5 mM GSH; type: ADME; settings: microsomes
Liver microsome [13] = experiment: Drug metabolism in human liver microsome assessed as (E)-2-(1-((S)-1-(2-chlorophenyl)-2-methoxy-2-oxoethyl)-4-mercaptopiperidin-3-ylidene)acetic acid formation at 5 uM by LC-MS/MS analysis in presence of 5 mM GSH; type: ADME; settings: microsomes
Liver microsome [14] = experiment: as §1, with “GSH and 1 mg/ml human liver cytosol” for “GSH”; type: ADME; settings: microsomes

| Drug metabolism (Liver cytosol [1]) | Drug metabolism [2] | Km [3] | Vmax [4] | clearance [5] | CL [6] | Drug metabolism (Liver microsome [7]) | Drug metabolism (Liver microsome [8]) | Drug metabolism (Liver microsome [9]) | Drug metabolism (Liver cytosol [10]) | Drug metabolism [11] | Drug metabolism (Liver microsome [12]) | Drug metabolism (Liver microsome [13]) | Drug metabolism (Liver microsome [14]) | Structure (SMILES) |
| --- | --- | --- | --- | --- | --- | --- | --- | --- | --- | --- | --- | --- | --- | --- |
| metabolite_not_detected | metabolite_not_detected | 30 µM | 381.6 pmol/min | 12.9 µL/min/µg | 0.1548 µL/min | metabolite_detected | metabolite_not_detected |  |  |  |  |  |  | COC(=O)[C@H](c1ccccc1Cl)N1CCC(SSC[C@H](NC(=O)CC[C@H](N)C(=O)O)C(=O)NCC(=O)O)/C(=C/C(=O)O)C1 (stereo not given in full) |
|  |  |  |  |  |  | metabolite_detected |  | 508 pmol/min | 2843 pmol/min | 130 pmol/min |  |  |  | COC(=O)[C@H](c1ccccc1Cl)N1CCC(S)/C(=C/C(=O)O)C1 (stereo not given in full) |
|  |  |  |  |  |  |  |  |  |  |  | metabolite_detected | metabolite_detected | metabolite_not_detected | COC(=O)[C@H](c1ccccc1Cl)N1CCC2SC(=O)C=C2C1 (stereo not given in full) [CLOPIDOGREL THIOLACTONE] |
